From patent US6515173B1, “Inhibitors of the ICE/ced-3 family of cysteine proteases” (Idun Pharmaceuticals, Inc., priority 2000, dated 2003)
Peptide text beside a SMILES is read from it. * marks the point of attachment. Cbz = O=C(OCc1ccccc1)*; CH2F = FC*

How the values were obtained:
Assay type in all cases: biochemical
Conditions in all cases: continuous assay sixty minutes, reaction initiated by adding enzyme to substrate-inhibitor mixture; Ki by simulating AMC formation (Equation 1)
mICE = molecular target: T1, mICE (Mus musculus, UniProt P29452); assay: Ki determination, ICE/ced-3 family protease fluorescence assay (mICE)
T1 sequence (P29452 123-296 limits assumed): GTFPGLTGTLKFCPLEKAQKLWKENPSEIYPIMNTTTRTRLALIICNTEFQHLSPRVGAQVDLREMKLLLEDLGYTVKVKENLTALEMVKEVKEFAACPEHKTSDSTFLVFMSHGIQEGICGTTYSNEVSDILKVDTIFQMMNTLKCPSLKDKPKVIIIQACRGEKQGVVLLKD
T1 sequence (P29452 315-402 limits assumed): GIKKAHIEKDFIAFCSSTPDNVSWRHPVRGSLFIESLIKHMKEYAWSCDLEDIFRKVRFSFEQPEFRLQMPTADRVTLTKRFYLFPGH
Method: (§1) Fluorescence enzyme assays detecting the activity of the compounds of Formula I utilizing the recombinant ICE and CPP32 enzymes are performed essentially according to Thorrberry et al. (Nature, 356:768:774 (1992)) and Nicholson et al. (Nature, 376:37-43 (1995)) respectively, (herein incorporated by reference) in 96 well microtiter plates. The substrate is Acetyl-Tyr-Val-Ala-Asp-amino-4-methylcoumarin (AMC) (SEQ ID NO: 1) for the ICE assay and Acetyl-Asp-Glu-Val-Asp-amino-4-methylcoumarin (SEQ ID NO: 2) for the CPP32, Mch2, Mch3 and Mch5 assays. Enzyme reactions are run in ICE buffer (25 mM HEPES, 1 mM EDTA, 0.1% CHAPS, 10% sucrose, pH 7.5) containing 2 mM DTT at room temperature in duplicate. The assays are performed by mixing the following components:
(§2) 50 μL ICE, Mch2, Mch5, CPP32 (18.8, 38, 8.1 and 0.153 nM concentrations, respectively) or Mch3 (1 unit) enzyme in ICE buffer containing either 8.0 (ICE, Mch2, Mch3, CPP32) or 20 (Mch5) mM DTT;
(§3) 50 μL compound of Formula I or ICE buffer (control); and […]
(§4) […] Fluorescent AMC product formation is monitored for one hour at room temperature by measuring the fluorescence emission at 460 nm using an excitation wavelength of 360 nm. […]
(§5) The product formation at time t may be expressed as: [formula] […]
(§6) The activity of a representative compound of this invention (i.e., Compound No. 1) evaluated according to the procedures disclosed in Example 1. […]

MCH-2 = molecular target: T2, MCH-2 (Homo sapiens, UniProt P55212); assay: Ki determination, ICE/ced-3 family protease fluorescence assay (MCH-2)
T2 sequence (P55212 24-179 limits assumed): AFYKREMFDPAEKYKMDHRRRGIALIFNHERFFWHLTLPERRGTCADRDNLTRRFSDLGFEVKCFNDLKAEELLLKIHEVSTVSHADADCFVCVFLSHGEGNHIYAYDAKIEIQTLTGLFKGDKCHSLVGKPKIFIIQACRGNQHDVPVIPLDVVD
T2 sequence (P55212 194-293 limits assumed): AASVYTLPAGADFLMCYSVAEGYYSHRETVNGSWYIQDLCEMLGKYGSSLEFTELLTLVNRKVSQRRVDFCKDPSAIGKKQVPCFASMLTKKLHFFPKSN
Method: as §1, §2, §3, §4, §5, §6

MCH-5 = MCH-5 (Homo sapiens, UniProt Q14790); assay: Ki determination, ICE/ced-3 family protease fluorescence assay (MCH-5)
Method: as §1, §2, §3, §4, §5, §6

CPP32 = molecular target: T3, CPP32 (Homo sapiens, UniProt P42574); assay: Ki determination, ICE/ced-3 family protease fluorescence assay (CPP32)
T3 sequence (P42574 29-175 limits assumed): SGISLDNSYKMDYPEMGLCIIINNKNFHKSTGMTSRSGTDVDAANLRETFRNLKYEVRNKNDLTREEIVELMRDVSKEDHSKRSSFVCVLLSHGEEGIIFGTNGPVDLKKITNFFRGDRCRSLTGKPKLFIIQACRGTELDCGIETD
T3 sequence (P42574 176-277 limits assumed): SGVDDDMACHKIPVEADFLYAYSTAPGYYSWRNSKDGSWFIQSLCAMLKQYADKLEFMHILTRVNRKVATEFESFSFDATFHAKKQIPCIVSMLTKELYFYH
Method: as §1, §2, §3, §4, §5, §6

Row | Ki (mICE) | Ki (MCH-2) | Ki (MCH-5) | Ki (CPP32) | SMILES
1 | 0.015 µM | 0.594 µM | 0.018 µM | 0.82 µM | CC(NC(=O)C(NC(=O)OCc1ccccc1)C(C)C)C(=O)NC(CC(=O)O)C(=O)CF (stereo not drawn) [reference, Cbz-ValAlaAsp-CH2F] (Cbz-Val-Ala-Asp-CH2F; configuration not given here)
2 | 0.004 µM | 0.681 µM | 0.011 µM | 0.856 µM | C[C@H](NC(=O)C(=O)Nc1ccccc1C(C)(C)C)C(=O)N[C@@H](CC(=O)NS(C)(=O)=O)C(=O)COc1c(F)c(F)cc(F)c1F [compound 1]
